Each molecule was assayed on RSV Long strain (assay: Viral cytopathic effect (CPE) assay, anti-RSV activity). Details: human respiratory syncytial virus, 144 h, RSV Long strain (ATCC); cell viability after 6 days, Cell Counting kit-8.
Assay type: cell-based, Respiratory Syncytial Virus
Outline: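 EC50 was derived from CCK-8 viability at 450/630 nm measured 6 days post-infection. Infection used enough RSV Long strain for approximately 80–90% cytopathic effect, in the presence of half-log serially diluted compound. Cells were plated the day before at 6×10^3 per well in DMEM/10% FBS.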

EC50 [µM] | Compound
0.012 | NCCNc1cc(N2CCS(=O)(=O)c3ccccc3C2)nc2ccccc12 [Example 9-15, N-[2-(1,1-Dioxido-2,3-dihydro-1,4-benzothiazepin-4(5H)-yl)quinolin-4-yl]ethane-1,2-diamine]
0.005 | Cc1ccc2nc(N3CCS(=O)(=O)c4ccccc4C3)cc(NCCN)c2c1 [Example 9-16, N-[2-(1,1-Dioxido-2,3-dihydro-1,4-benzothiazepin-4(5H)-yl)-6-methylquinolin-4-yl]ethane-1,2-diamine]
0.025 | Cc1ccc2nc(N3CCS(=O)(=O)c4ccccc4C3)cc(NC(C)(C)CN)c2c1 [Example 9-17, N^˜2^˜-[2-(1,1-Dioxido-2,3-dihydro-1,4-benzothiazepin-4(5H)-yl)-6-methylquinolin-4-yl]-2-methylpropane-1,2-diamine]
0.01 | Cc1ccc2nc(N3CCS(=O)(=O)c4ccccc4C3)cc(NC(C)CN)c2c1 (stereo not drawn) [Example 9-18, N^˜2^˜-[2-(1,1-Dioxido-2,3-dihydro-1,4-benzothiazepin-4(5H)-yl)-6-methylquinolin-4-yl]propane-1,2-diamine]
0.0007 | Cc1ccc2nc(N3CCS(=O)(=O)c4ccccc4C3)cc(NCCCCN)c2c1 [Example 9-19, N-[2-(1,1-Dioxido-2,3-dihydro-1,4-benzothiazepin-4(5 H)-yl)-6-methylquinolin-4-yl]butane-1,4-diamine]
0.76 | NCCNc1cc(N2CCS(=O)(=O)c3ccccc3C2)nc2ccc([N+](=O)[O-])cc12 [Example 9-20, N-[2-(1,1-Dioxido-2,3-dihydro-1,4-benzothiazepin-4(5H)-yl)-6-nitroquinolin-4-yl]ethane-1,2-diamine]
0.021 | Cc1ccc2nc(N3CCS(=O)(=O)c4ccccc4C3)cc(NCCN)c2c1F [Example 9-21, N-[2-(1,1-Dioxido-2,3-dihydro-1,4-benzothiazepin-4(5H)-yl)-5-fluoro-6-methylquinolin-4-yl]ethane-1,2-diamine]
0.872 | Cc1ccc2nc(N3CCS(=O)(=O)c4ccccc4C3)cc(NCCO)c2c1F [Example 9-22, 2-{[2-(1,1-Dioxido-2,3-dihydro-1,4-benzothiazepin-4(5H)-yl)-5-fluoro-6-methylquinolin-4-yl]amino}ethanol]
3.02 | Cc1cc2c(NCCO)cc(N3CCS(=O)(=O)c4ccccc4C3)nc2cc1F [Example 9-23, 2-{[2-(1,1-Dioxido-2,3-dihydro-1,4-benzothiazepin-4(5H)-yl)-7-fluoro-6-methylquinolin-4-yl]amino}ethanol]
0.024 | Cc1cc2c(NCCN)cc(N3CCS(=O)(=O)c4ccccc4C3)nc2cc1F [Example 9-24, N-[2-(1,1-Dioxido-2,3-dihydro-1,4-benzothiazepin-4(5H)-yl)-7-fluoro-6-methylquinolin-4-yl]ethane-1,2-diamine]
4.08 | Cc1cc2c(NCCN)cc(N3CCS(=O)(=O)c4ccccc4C3)nc2c(F)c1F [Example 9-25, N-[2-(1,1-Dioxido-2,3-dihydro-1,4-benzothiazepin-4(5H)-yl)-7,8-difluoro-6-methylquinolin-4-yl]ethane-1,2-diamine]
7.2 | COCCNc1cc(N2CCS(=O)(=O)c3ccccc3C2)nc2ccc(C)cc12 [Example 9-26, 2-(1,1-Dioxido-2,3-dihydro-1,4-benzothiazepin-4(5H)-yl)-N-(2-methoxyethyl)-6-methylquinolin-4-amine]
0.797 | Cc1ccc2nc(N3CCS(=O)(=O)c4ccccc4C3)cc(N3CCC(N)CC3)c2c1 [Example 9-27, 1-[2-(1,1-Dioxido-2,3-dihydro-1,4-benzothiazepin-4(5H)-yl)-6-methylquinolin-4-yl]piperidin-4-amine]
0.003 | NC1CCN(c2cc(N3CCS(=O)(=O)c4ccccc4C3)nc3ccncc23)C1 (stereo not drawn) [Example 9-28, 1-[2-(1,1-Dioxido-2,3-dihydro-1,4-benzothiazepin-4(5H)-yl)-1,6-naphthyridin-4-yl]pyrrolidin-3-amine]
0.024 | NCCCNc1cc(N2CCS(=O)(=O)c3ccccc3C2)nc2ccc(C(F)F)cc12 [Example 9-29, N-[6-(Difluoromethyl)-2-(1,1-dioxido-2,3-dihydro-1,4-benzothiazepin-4(5H)-yl)quinolin-4-yl]propane-1,3-diamine]
8.59 | CCNc1cc(N2CCS(=O)(=O)c3ccccc3C2)nc2ccc(Cl)cc12 [Example 9-30, 6-Chloro-2-(1,1-dioxido-2,3-dihydro-1,4-benzothiazepin-4(5H)-yl)-N-ethylquinolin-4-amine]
2.43 | O=S1(=O)CCN(c2cc(NCCO)c3cc(Cl)ccc3n2)Cc2ccccc21 [Example 9-31, 2-{[6-Chloro-2-(1,1-dioxido-2,3-dihydro-1,4-benzothiazepin-4(5H)-yl)quinolin-4-yl]amino}ethanol]
0.063 | CNCCNc1cc(N2CCS(=O)(=O)c3ccccc3C2)nc2ccc(Cl)cc12 [Example 9-32, N-[6-Chloro-2-(1,1-dioxido-2,3-dihydro-1,4-benzothiazepin-4(5H)-yl)quinolin-4-yl]-N′-methylethane-1,2-diamine]

EC50 [µM] | Compound
0.057 | CSc1ccc2nc(N3CCS(=O)(=O)c4ccccc4C3)cc(NCCCN)c2c1 [Example 9-33, N-[2-(1,1-Dioxido-2,3-dihydro-1,4-benzothiazepin-4(5H)-yl)-6-(methylsulfanyl)quinolin-4-yl]propane-1,3-diamine]
0.024 | NCCCNc1cc(N2CCS(=O)(=O)c3ccccc3C2)nc2ccc(Br)cc12 [Example 9-34, N-[6-Bromo-2-(1,1-dioxido-2,3-dihydro-1,4-benzothiazepin-4(5H)-yl)quinolin-4-yl]propane-1,3-diamine]
0.003 | NCCNc1cc(N2CCS(=O)(=O)c3ccccc3C2)nc2ccc(CO)cc12 [Example 10, {4-[(2-Aminoethyl)amino]-2-(1,1-dioxido-2,3-dihydro-1,4-benzothiazepin-4(5H)-yl)quinolin-6-yl}methanol]
0.069 | Cc1ccc2nc(N3CCS(=O)(=O)c4ccccc4C3)cc(NC(CO)CO)c2c1 [Example 11-1, 2-{[2-(1,1-Dioxido-2,3-dihydro-1,4-benzothiazepin-4(5H)-yl)-6-methylquinolin-4-yl]amino}propane-1,3-diol]
7.02 | Cc1ccc2nc(N3CCS(=O)(=O)c4ccccc4C3)cc(N(CCO)CCO)c2c1 [Example 11-2, 2,2′-{[2-(1,1-Dioxido-2,3-dihydro-1,4-benzothiazepin-4(5H)-yl)-6-methylquinolin-4-yl]imino}diethanol]
0.922 | Cc1ccc2nc(N3CCS(=O)(=O)c4ccccc4C3)cc(NCC(O)CC(=O)O)c2c1 (stereo not drawn) [Example 11-3, 4-{[2-(1,1-Dioxido-2,3-dihydro-1,4-benzothiazepin-4(5H)-yl)-6-methylquinolin-4-yl]amino}-3-hydroxybutanoic acid]
0.004 | Cc1ccc2nc(N3CCS(=O)(=O)c4ccccc4C3)cc(NCC(C)(O)CN)c2c1 (stereo not drawn) [Example 11-4, 1-Amino-3-{[2-(1,1-dioxido-2,3-dihydro-1,4-benzothiazepin-4(5H)-yl)-6-methylquinolin-4-yl]amino}-2-methylpropan-2-ol]
0.536 | Cc1ccc2nc(N3CCS(=O)(=O)c4ccccc4C3)cc(NCCN3CCOCC3)c2c1 [Example 12-1, 2-(1,1-Dioxido-2,3-dihydro-1,4-benzothiazepin-4(5H)-yl)-6-methyl-N-[2-(morpholin-4-yl)ethyl]quinolin-4-amine]
0.315 | O=S1(=O)CCN(c2cc(NCCO)c3cnccc3n2)Cc2ccccc21 [Example 12-2, 2-{[2-(1,1-Dioxido-2,3-dihydro-1,4-benzothiazepin-4(5H)-yl)-1,6-naphthyridin-4-yl]amino}ethanol]
6.26 | Cc1cccc2c(NCCCCCCCCCN)cc(N3CCS(=O)(=O)c4ccccc4C3)nc12 [Example 12-3, N-[2-(1,1-Dioxido-2,3-dihydro-1,4-benzothiazepin-4(5H)-yl)-8-methylquinolin-4-yl]nonane-1,9-diamine]
0.764 | Cc1cccc2c(NCCCCCCCCCCN)cc(N3CCS(=O)(=O)c4ccccc4C3)nc12 [Example 12-4, N-[2-(1,1-Dioxido-2,3-dihydro-1,4-benzothiazepin-4(5H)-yl)-8-methylquinolin-4-yl]decane-1,10-diamine]
0.448 | Cc1ccc2nc(N3CCS(=O)(=O)c4ccccc4C3)cc(NCCCCCCCCN)c2c1 [Example 12-5, N-[2-(1,1-Dioxido-2,3-dihydro-1,4-benzothiazepin-4(5H)-yl)-6-methylquinolin-4-yl]octane-1,8-diamine]
9.21 | Cc1ccc2nc(N3CCS(=O)(=O)c4ccccc4C3)cc(NCCCCCCCCCO)c2c1 [Example 12-6, 9-{[2-(1,1-Dioxido-2,3-dihydro-1,4-benzothiazepin-4(5H)-yl)-6-methylquinolin-4-yl]amino}nonan-1-ol]
0.226 | Cc1cccc2c(NCCCCCCCCN)cc(N3CCS(=O)(=O)c4ccccc4C3)nc12 [Example 12-7, N-[2-(1,1-Dioxido-2,3-dihydro-1,4-benzothiazepin-4(5H)-yl)-8-methylquinolin-4-yl]octane-1,8-diamine]
2.19 | Cc1ccc2nc(N3CCS(=O)(=O)c4ccccc4C3)cc(N[C@@H](C)C(=O)O)c2c1 [Example 14-1, N-[2-(1,1-Dioxido-2,3-dihydro-1,4-benzothiazepin-4(5H)-yl)-6-methylquinolin-4-yl]-L-alanine]
8.79 | Cc1ccc2nc(N3CCS(=O)(=O)c4ccccc4C3)cc(NCCC(=O)O)c2c1 [Example 14-2, N-[2-(1,1-Dioxido-2,3-dihydro-1,4-benzothiazepin-4(5H)-yl)-6-methylquinolin-4-1]-beta-alanine]
7.89 | Cc1ccc2nc(N3CCS(=O)(=O)c4ccccc4C3)cc(Nc3cccc(N)c3)c2c1 [Example 15-1, N-[2-(1,1-Dioxido-2,3-dihydro-1,4-benzothiazepin-4(5H)-yl)-6-methylquinolin-4-yl]benzene-1,3-diamine]
7.99 | Cc1ccc2nc(N3CCS(=O)(=O)c4ccccc4C3)cc(Nc3ccc(N)cc3)c2c1 [Example 15-2, N-[2-(1,1-Dioxido-2,3-dihydro-1,4-benzothiazepin-4(5H)-yl)-6-methylquinolin-4-yl]benzene-1,4-diamine]

— US8871756B2 (Hoffmann-La Roche Inc., priority 2011, dated 2014)
